Data set [1] is described as follows: Metabolic stability in human liver microsomes assessed as intrinsic clearance. The data set is classed as ADME, Microsome. The settings on record: read-out: CLH.
Data set [2] in a line: Solubility of the compound in PBS. In kind it is physicochemical.
In data set [3] the target is Lysosomal acid glucosylceramidase (Homo sapiens, UniProt P04062, N409S). The data set is described as follows: Chaperone activity at GCase N370S GBA mutant in patient derived fibroblast cell using 4-methylumbelliferyl-beta-D-glucopyranoside as substrate assessed as substrate cleavage by measuring concentration required for maximal response incubated for 5 days by fluorescence based assay.

The next data set concerns LLC-PK1. The data set is described as follows: Corrected flux ratio of permeability in pig LLC-PK1 cells overexpressing MDR1 to pig LLC-PK1 cells. In kind it is ADME, cell-based, Sus scrofa.

≈ marks a conversion by molar mass, not a printed value. Some results are limits rather than exact numbers.

Chain of Lysosomal acid glucosylceramidase (P04062 40-536 N409S limits assumed): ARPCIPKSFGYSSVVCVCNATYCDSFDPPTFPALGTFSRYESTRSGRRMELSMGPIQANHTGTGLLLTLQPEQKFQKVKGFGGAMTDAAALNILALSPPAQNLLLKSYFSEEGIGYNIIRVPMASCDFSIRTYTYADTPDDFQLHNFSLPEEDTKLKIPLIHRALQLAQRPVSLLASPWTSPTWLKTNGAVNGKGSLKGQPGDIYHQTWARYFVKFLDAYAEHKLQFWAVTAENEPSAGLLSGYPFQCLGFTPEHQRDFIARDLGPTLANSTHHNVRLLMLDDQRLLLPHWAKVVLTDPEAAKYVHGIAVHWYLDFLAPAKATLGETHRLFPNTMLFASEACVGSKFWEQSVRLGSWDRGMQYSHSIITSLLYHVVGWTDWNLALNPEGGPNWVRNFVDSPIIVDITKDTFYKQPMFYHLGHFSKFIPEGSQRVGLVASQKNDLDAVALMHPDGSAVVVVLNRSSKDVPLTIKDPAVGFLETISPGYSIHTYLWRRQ

Broadly, the solubility is the dissolved amount per volume that the medium holds. The EC50 is the concentration that produces a half-maximal response. On to `Cc1cc(N2CCN(C(=O)c3cc(-c4ccccc4)nc4c3cnn4C(C)C)CC2)nc(C(C)C)n1`, for which, in data set [1], the CLint scaled was 0.341 mL/min/kg. The compound further gave a solubility in data set [2] of 3 µM (≈ 1.45 µg/mL). Besides, the EC50 in data set [3] was 90 nM. Besides, the Ratio in the data set on LLC-PK1 is given as 1.26.
Consider `Cc1cc(N2CCN(C(=O)c3ccccc3C)CC2)nc(C(C)C)n1`, for which the EC50 in data set [3] turned out to be 150 nM.
As to `Cc1cc(N2CCN(C(=O)c3ccccc3C)CC2)nc(N2CCCCCC2)n1`, in data set [3], the EC50 was 29 nM.
As for `Cc1cc(N2CCN(C(=O)c3ccncc3)CC2)nc(N2CCCC2)n1`, the EC50 in data set [3] came out at 6800 nM.
Take `Cc1ccccc1C(=O)N1CCN(c2nc(N3CCCC3)nc3c2COC3)CC1`: in data set [3], the EC50 came to 540 nM.
As for `Cc1cc(N2CCN(C(=O)c3cnccn3)CC2)nc(N2CCCC2)n1`, the EC50 in data set [3] stood at 5300 nM.
Take `Cc1cc(N2CCN(C(=O)c3ccc(C(C)(C)C)cc3)CC2)nc(N2CCCC2)n1`: the CLint scaled in data set [1] came out at 0.172 mL/min/kg. This compound also yielded a solubility in data set [2] of 68 µM (≈ 27.7 µg/mL).
Turning to `Cc1ccccc1C(=O)N1CCN(c2ccnc(N3CCCC3)n2)CC1`, in data set [3], the EC50 turned out to be 680 nM.
On the same count and under the same terms, the value for `Cc1cc(N2CCN(C(=O)c3ccccc3C)CC2)nc(N2CCC2)n1` was 440 nM.
In the case of `Cc1cc(N2CCN(C(=O)c3ccccc3C)CC2)nc(N2CCCC2)n1`, the CLint scaled in data set [1] came to 0.104 mL/min/kg. Moreover, in data set [2], the solubility is 94 µM (≈ 34.4 µg/mL). Also, the concentration for a half-maximal effect (EC50) in data set [3] came out at 75 nM. Besides, the Ratio in the data set with LLC-PK1 was 1.38.
As for `CC(=O)N1CCN(c2cc(C)nc(N3CCCC3)n2)CC1`, in data set [3], the EC50 came to 7100 nM.
Turning to `Cc1cc(N2CCN(C(=O)c3ccccc3C)CC2)nc(N(C)C)n1`, the 50% effective concentration (EC50) in data set [3] stood at 630 nM.
On to `Cc1cc(N2CCN(C(=O)c3ccc(Cl)cc3)CC2)nc(N2CCCC2)n1`, for which the EC50 in data set [3] came to 40 nM.
Same read-out and setting: then `Cc1cc(N2CCN(C(=O)Cc3ccccc3)CC2)nc(N2CCCC2)n1`, with 460 nM; and `Cc1cc(N2CCN(C(=O)c3ccccc3C)CC2)nc(N2CCOCC2)n1`, with 5200 nM.
For the compound `Cc1cc(N2CCN(C(=O)c3ccccc3Cl)CC2)nc(N2CCCC2)n1`, in data set [3], the EC50 was found to be 63 nM.
With `Cc1ccc(C(=O)N2CCN(c3cc(C)nc(N4CCCC4)n3)CC2)cc1`, in data set [3], the EC50 is 70 nM.
Turning to `CC(C)(C)c1ccc(C(=O)N2CCN(c3nc(N4CCCC4)nc4c3CCC4)CC2)cc1`, in data set [2], the concentration in solution (solubility) was 2 µM (≈ 0.867 µg/mL).
Consider `Cc1cc(N2CCN(C(=O)c3ccccc3C)CC2)nc(N2CCCCC2)n1`, for which the EC50 in data set [3] stood at 170 nM.
With `Cc1cc(N2CC3(CN(C(=O)c4ccccc4C)C3)C2)nc(N2CCCC2)n1`, the 50% effective concentration (EC50) in data set [3] was determined as 2100 nM.
The same measure, in the same setting: then `Cc1cc(N2CCN(C(=O)c3ccccc3C)CC2)nc(N2CCC(F)(F)C2)n1`, with 1400 nM.
For `Cc1ccccc1C(=O)N1CCN(c2nc(N3CCCC3)nc3ccccc23)CC1`, the CLint scaled in data set [1] worked out at 0.789 mL/min/kg. The same compound yielded a solubility in data set [2] of 85 µM (≈ 34.1 µg/mL). Besides, the EC50 in data set [3] was determined as 79 nM. For the same compound, the Ratio in the data set on LLC-PK1 was 2.19.
In the case of `CC(C)(C)c1ccc(C(=O)N2CCN(c3nc(N4CCCC4)nc4c3COC4)CC2)cc1`, the concentration giving a half-maximal response (EC50) in data set [3] was found to be 150 nM.
Consider `Cc1cc(N2CC3CN(C(=O)c4ccccc4C)CC3C2)nc(N2CCCC2)n1` (configuration not stated), for which the EC50 in data set [3] was found to be 660 nM.
`Cc1ccccc1C(=O)N1CCN(c2nc(N3CCCC3)nc3c2CCC3)CC1`: the EC50 in data set [3] came to 30 nM.
Consider `Cc1ccccc1C(=O)N1CCN(c2nc(N3CCCC3)nc3c2COCC3)CC1`, for which the EC50 in data set [3] was determined as 410 nM.
The same measure, in the same setting: the value for `Cc1ccccc1C(=O)N1CCN(c2cc(C(F)(F)F)nc(N3CCCC3)n2)CC1` was greater than 25000 nM.
Turning to `Cc1cc(N2CCN(C(=O)c3ccccc3F)CC2)nc(N2CCCC2)n1`, in data set [3], the half-maximal effective concentration (EC50) is 170 nM.
With `Cc1cc(N2CCN(C(=O)c3ccccc3C(F)(F)F)CC2)nc(N2CCCC2)n1`, the EC50 in data set [3] stood at 100 nM.
Take `Cc1cc(N2CCN(C(=O)C3CCCCC3)CC2)nc(N2CCCC2)n1`: the EC50 in data set [3] was determined as 360 nM.
In the case of `Cc1cccc(C(=O)N2CCN(c3cc(C)nc(N4CCCC4)n3)CC2)c1`, in data set [3], the EC50 was determined as 130 nM.
As to `Cc1ccccc1C(=O)N1CCN(c2nc(N3CCCC3)ncc2C)CC1`, the concentration giving a half-maximal response (EC50) in data set [3] stood at 120 nM.
Turning to `Cc1ccccc1C(=O)N1CCN(c2cc(CO)nc(N3CCCC3)n2)CC1`, the EC50 in data set [3] was 220 nM.
Regarding `Cc1cc(N2CCCN(C(=O)c3ccccc3C)CC2)nc(N2CCCC2)n1`, in data set [3], the EC50 amounted to 1800 nM.
On to `Cc1ccccc1C(=O)N1CCN(c2nc(N3CCCC3)nc(C)c2C)CC1`, for which the EC50 in data set [3] was determined as 250 nM.
`Cc1cc(N2CCN(C(=O)c3ccc(-c4ccccc4)cc3)CC2)nc(N2CCCC2)n1`: in data set [3], the EC50 was found to be 58 nM.
For `Cc1cc(N2CCN(C(=O)c3ccccc3)CC2)nc(N2CCCC2)n1`, in data set [3], the EC50 amounted to 72 nM.

These data come from ChEMBL document CHEMBL5236669, “Identification of pyrimidinyl piperazines as non-iminosugar glucocerebrosidase (GCase) pharmacological chaperones” (Bioorg Med Chem Lett, 2023).
